From patent US12611438B2, “Antiviral composition comprising a nucleolin-binding peptide” (ANYGEN CO., LTD., priority 2021, dated 2026)

Legend:
SARS-COV-2 = conditions: 24 h
[1] = MTT cytotoxicity assay, Vero cells; conditions: African green monkey

Work on CC[C@H](C)[C@H](NC(=O)[C@H](CCCNC(=N)N)NC(=O)[C@H](CC(C)C)NC(=O)[C@@H](NC(=O)[C@H](CCCNC(=N)N)NC(=O)[C@H](CCSC)NC(=O)[C@@H](NC(=O)[C@@H](N)CCCNC(=N)N)[C@@H](C)CC)[C@@H](C)CC)C(=O)N[C@@H](CC(C)C)C(=O)N[C@@H](CCCCN)C(=O)N[C@@H](CC(C)C)C(=O)N[C@@H](C)C(=O)N[C@@H](CCCNC(=N)N)C(=O)NCCCC[C@H](NC(=O)[C@H](CCCNC(=N)N)NC(=O)[C@H](C)NC(=O)[C@H](CC(C)C)NC(=O)[C@H](CCCCN)NC(=O)[C@H](CC(C)C)NC(=O)[C@@H](NC(=O)[C@H](CCCNC(=N)N)NC(=O)[C@H](CC(C)C)NC(=O)[C@@H](NC(=O)[C@H](CCCNC(=N)N)NC(=O)[C@H](CCSC)NC(=O)[C@@H](NC(=O)[C@@H](N)CCCNC(=N)N)[C@@H](C)CC)[C@@H](C)CC)[C@@H](C)CC)C(=O)N[C@@H](CSSC[C@H](NC(=O)[C@H](CCCCNC(=O)CCOCCOCCOCCOCCOCCOCCNC(=O)[C@H](CCCCN)NC(=O)[C@H](CC(C)C)NC(=O)[C@H](Cc1ccc(O)cc1)NC(=O)[C@@H](NC(=O)[C@H](CCSC)NC(=O)[C@H](C)NC(=O)CNC(=O)[C@H](Cc1c[nH]cn1)NC(=O)[C@@H](N)CCCNC(=N)N)C(C)C)NC(=O)CCOCCOCCOCCOCCOCCOCCNC(=O)[C@H](CCCCN)NC(=O)[C@H](CC(C)C)NC(=O)[C@H](Cc1ccc(O)cc1)NC(=O)[C@@H](NC(=O)[C@H](CCSC)NC(=O)[C@H](C)NC(=O)CNC(=O)[C@H](Cc1c[nH]cn1)NC(=O)[C@@H](N)CCCNC(=N)N)C(C)C)C(=O)O)C(=O)O [AGM-330d-dCPP] yielded an IC50 (SARS-COV-2) of 5.2 µM and a CC50 at 24 h [1] of 7.73 µM.
